The conditions of the series: calcium acetate used in Example 1. An excerpt:
In another preferred embodiment, the bulk density is between about 0.30 g/cc to about less than 0.55 g/cc. More preferably the bulk density is between about 0.30 g/cc to about 0.45 g/cc.

For the molecule `CC(=O)[O-].CC(=O)[O-].[Ca+2]` [calcium acetate], the bulk density is 0.47 g/cc.
